{
  "source": "patent US20260007133A1",
  "about": "“HERBICIDAL COMPOSITION COMPRISING AZINE COMPOUNDS” (BASF SE, priority 2022, published 2026)",
  "format_in_all_cases": "in vivo",
  "key": {"[1]": {"system": "Abutilon theophrasti", "test": "Greenhouse post-emergence (POST) herbicidal test on ABUTH", "conditions": "Abutilon theophrasti, post-emergence", "in_short": "(§1)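 Visual damage rating on a 0–100 scale, 0 meaning normal growth and 100 complete kill of above-ground parts, taken 20 days after treatment. Spray applied post-emergence to plants 3–15 cm tall in loamy sand with approximately 3.0% humus.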"}, "[2]": {"system": "Amaranthus retroflexus", "test": "Greenhouse post-emergence (POST) herbicidal test on AMARE", "conditions": "Amaranthus retroflexus, post-emergence", "in_short": "as §1"}, "[3]": {"system": "Euphorbia heterophylla", "test": "Greenhouse post-emergence (POST) herbicidal test on EPHHL", "conditions": "Euphorbia heterophylla, post-emergence; for inhibition at 2 g/ha: use rate 2 gai/ha; for inhibition at 4 g/ha: use rate 4 gai/ha; for inhibition at 8 g/ha: use rate 8 gai/ha", "in_short": "as §1"}, "[4]": {"system": "Brachiaria decumbens", "test": "Greenhouse pre-emergence (PRE) herbicidal test on BRADC", "conditions": "Urochloa decumbens, BRADC PRE, use rate 2 gai/ha", "in_short": "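Visual rating on a 0 (normal growth) to 100 (no emergence or above-ground kill) scale at 20 DAT. Treatment was pre-emergence spray of aqueous suspension/emulsion right after sowing into loamy sand with ~3.0% humus; covered until rooted, grown at 10-25° C or 20-35° C depending on species.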"}, "[5]": {"system": "Euphorbia heterophylla", "test": "Greenhouse pre-emergence (PRE) herbicidal test on EPHHL", "conditions": "Euphorbia heterophylla, pre-emergence", "in_short": "(§2)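 Scoring ran from 0 (normal growth) to 100 (no emergence or above-ground parts fully destroyed) and was done 20 DAT. Application was pre-emergent in pots of loamy sand (~3.0% humus) sown per species. Plants grew at 10-25° C or 20-35° C by species.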"}, "[6]": {"system": "Commelina benghalensis", "test": "Greenhouse pre-emergence (PRE) herbicidal test on COMBE", "conditions": "Commelina benghalensis, pre-emergence; for inhibition at 4 g/ha: use rate 4 gai/ha", "in_short": "as §2"}, "[7]": {"conditions": "480 h, POST, EPHHL, 20 DAT, read-out: solo application % activity"}},
  "note": "Like-named read-outs stand apart in the source and are kept apart here.",
  "data": [
    {"compound": "COc1c(Cl)cc(F)c(F)c1Nc1nc(N)nc(C(C)(C)F)n1", "note": "[Compound I-3]", "values": [
      {"measurement": "pest or weed control at 8 g/ha", "setting": "[1]; 432 h, POST, ABUTH, I-3 solo 8 gai/ha, 18 DAT", "result": 65, "unit": "%"},
      {"measurement": "pest or weed control at 8 g/ha", "setting": "[1]; 480 h, POST, 8 gai/ha, 20 DAT", "result": 50, "unit": "%"},
      {"measurement": "inhibition at 2 g/ha", "setting": "[1]; 480 h, POST, ABUTH, 2 gai/ha, 20 DAT, read-out: % activity solo application", "result": 10, "unit": "%"},
      {"measurement": "pest or weed control at 2 g/ha", "setting": "[1]; 480 h, POST, ABUTH, I-3 solo 2 gai/ha, 20 DAT", "result": 50, "unit": "%"},
      {"measurement": "pest or weed control at 8 g/ha", "setting": "[1]; 480 h, POST, ABUTH, I-3 solo 8 gai/ha, 20 DAT", "result": 80, "unit": "%"},
      {"measurement": "inhibition at 2 g/ha", "setting": "[1]; 480 h, POST, ABUTH, use rate 2 gai/ha, 20 DAT, read-out: solo application % activity", "result": 10, "unit": "%"},
      {"measurement": "inhibition at 4 g/ha", "setting": "[1]; 480 h, POST, ABUTH, use rate 4 gai/ha, 20 DAT", "result": 10, "unit": "%"},
      {"measurement": "inhibition at 16 g/ha", "setting": "[1]; 480 h, POST, ABUTH, use rate 16 gai/ha, 20 DAT", "result": 50, "unit": "%"},
      {"measurement": "inhibition at 2 g/ha", "setting": "[1]; ABUTH POST, use rate 2 gai/ha, read-out: % activity", "result": 20, "unit": "%"},
      {"measurement": "inhibition at 8 g/ha", "setting": "[1]; ABUTH POST, use rate 8 gai/ha, read-out: % activity", "result": 85, "unit": "%"},
      {"measurement": "inhibition at 2 g/ha", "setting": "[1]; POST, ABUTH, use rate 2 gai/ha, read-out: % activity", "result": 30, "unit": "%"},
      {"measurement": "pest or weed control at 8 g/ha", "setting": "[2]; 432 h, POST, AMARE, I-3 solo 8 gai/ha, 18 DAT", "result": 90, "unit": "%"},
      {"measurement": "inhibition at 2 g/ha", "setting": "[2]; 480 h, POST, AMARE, 2 gai/ha, 20 DAT, read-out: % activity solo application", "result": 45, "unit": "%"},
      {"measurement": "inhibition at 4 g/ha", "setting": "[2]; 480 h, POST, AMARE, use rate 4 gai/ha, 20 DAT", "result": 50, "unit": "%"},
      {"measurement": "inhibition at 2 g/ha", "setting": "[2]; AMARE POST, use rate 2 gai/ha, read-out: % activity", "result": 60, "unit": "%"},
      {"measurement": "inhibition at 8 g/ha", "setting": "[2]; AMARE POST, use rate 8 gai/ha, read-out: % activity", "result": 75, "unit": "%"},
      {"measurement": "inhibition at 2 g/ha", "setting": "[2]; POST, AMARE, use rate 2 gai/ha, read-out: % activity", "result": 70, "unit": "%"},
      {"measurement": "inhibition at 2 g/ha", "setting": "[3]; 480 h, EPHHL POST, 20 DAT, read-out: % activity", "result": 25, "unit": "%"},
      {"measurement": "pest or weed control at 8 g/ha", "setting": "[3]; 480 h, POST, 8 gai/ha, 20 DAT", "result": 60, "unit": "%"},
      {"measurement": "inhibition at 2 g/ha", "setting": "[3]; [7]", "result": 20, "unit": "%"},
      {"measurement": "inhibition at 4 g/ha", "setting": "[3]; 480 h, POST, EPHHL, 20 DAT", "result": 65, "unit": "%"},
      {"measurement": "inhibition at 8 g/ha", "setting": "[3]; [7]", "result": 50, "unit": "%"},
      {"measurement": "inhibition at 8 g/ha", "setting": "[3]; EPHHL POST, read-out: % activity", "result": 60, "unit": "%"},
      {"measurement": "inhibition at 4 g/ha", "setting": "[3]; POST, EPHHL", "result": 60, "unit": "%"},
      {"measurement": "inhibition at 2 g/ha", "setting": "[4]", "result": 30, "unit": "%"},
      {"measurement": "pest or weed control at 2 g/ha", "setting": "[5]; 432 h, PRE, EPHHL, I-3 solo 2 gai/ha, 18 DAT", "result": 15, "unit": "%"},
      {"measurement": "pest or weed control at 8 g/ha", "setting": "[5]; 432 h, PRE, EPHHL, I-3 solo 8 gai/ha, 18 DAT", "result": 75, "unit": "%"},
      {"measurement": "inhibition at 2 g/ha", "setting": "[5]; 480 h, EPHHL PRE, 20 DAT, use rate 2 gai/ha, read-out: % activity", "result": 0, "unit": "%"},
      {"measurement": "inhibition at 8 g/ha", "setting": "[5]; 480 h, EPHHL PRE, 20 DAT, use rate 8 gai/ha, read-out: % activity", "result": 50, "unit": "%"},
      {"measurement": "pest or weed control at 8 g/ha", "setting": "[5]; 480 h, PRE, 8 gai/ha, 20 DAT", "result": 50, "unit": "%"},
      {"measurement": "inhibition at 2 g/ha", "setting": "[5]; 480 h, PRE, EPHHL, 2 gai/ha, 20 DAT, read-out: % activity solo application", "result": 5, "unit": "%"},
      {"measurement": "inhibition at 8 g/ha", "setting": "[5]; 480 h, PRE, EPHHL, 8 gai/ha, 20 DAT, read-out: % activity solo application", "result": 50, "unit": "%"},
      {"measurement": "pest or weed control at 8 g/ha", "setting": "[5]; 480 h, PRE, EPHHL, I-3 solo 8 gai/ha, 20 DAT", "result": 20, "unit": "%"},
      {"measurement": "inhibition at 2 g/ha", "setting": "[5]; 480 h, PRE, EPHHL, use rate 2 gai/ha, 20 DAT, read-out: solo application % activity", "result": 10, "unit": "%"},
      {"measurement": "inhibition at 8 g/ha", "setting": "[5]; 480 h, PRE, EPHHL, use rate 8 gai/ha, 20 DAT, read-out: solo application % activity", "result": 50, "unit": "%"},
      {"measurement": "inhibition at 8 g/ha", "setting": "[5]; EPHHL PRE, use rate 8 gai/ha, read-out: % activity", "result": 55, "unit": "%"},
      {"measurement": "inhibition at 2 g/ha", "setting": "[5]; PRE, EPPHL, use rate 2 gai/ha, read-out: % activity", "result": 45, "unit": "%"},
      {"measurement": "inhibition at 8 g/ha", "setting": "[5]; PRE, EPPHL, use rate 8 gai/ha, read-out: % activity", "result": 80, "unit": "%"},
      {"measurement": "pest or weed control at 2 g/ha", "setting": "[6]; 432 h, PRE, COMBE, I-3 solo 2 gai/ha, 18 DAT, read-out: % activity", "result": 50, "unit": "%"},
      {"measurement": "inhibition at 2 g/ha", "setting": "[6]; 480 h, COMBE PRE, 20 DAT, use rate 2 gai/ha, read-out: % activity", "result": 0, "unit": "%"},
      {"measurement": "inhibition at 8 g/ha", "setting": "[6]; 480 h, COMBE PRE, 20 DAT, use rate 8 gai/ha, read-out: % activity", "result": 75, "unit": "%"},
      {"measurement": "pest or weed control at 8 g/ha", "setting": "[6]; 480 h, PRE, 8 gai/ha, 20 DAT", "result": 75, "unit": "%"},
      {"measurement": "inhibition at 2 g/ha", "setting": "[6]; 480 h, PRE, COMBE, 2 gai/ha, 20 DAT, read-out: % activity solo application", "result": 10, "unit": "%"},
      {"measurement": "inhibition at 8 g/ha", "setting": "[6]; 480 h, PRE, COMBE, 8 gai/ha, 20 DAT, read-out: % activity solo application", "result": 10, "unit": "%"},
      {"measurement": "inhibition at 2 g/ha", "setting": "[6]; 480 h, PRE, COMBE, use rate 2 gai/ha, 20 DAT, read-out: solo application % activity", "result": 10, "unit": "%"},
      {"measurement": "inhibition at 4 g/ha", "setting": "[6]; 480 h, PRE, COMBE, 20 DAT", "result": 35, "unit": "%"},
      {"measurement": "inhibition at 8 g/ha", "setting": "[6]; 480 h, PRE, COMBE, use rate 8 gai/ha, 20 DAT, read-out: % activity", "result": 70, "unit": "%"},
      {"measurement": "inhibition at 8 g/ha", "setting": "[6]; 480 h, PRE, COMBE, use rate 8 gai/ha, 20 DAT, read-out: solo application % activity", "result": 10, "unit": "%"},
      {"measurement": "inhibition at 2 g/ha", "setting": "[6]; 480 h, PRE, use rate 2 gai/ha, 20 DAT, read-out: % activity", "result": 10, "unit": "%"},
      {"measurement": "inhibition at 8 g/ha", "setting": "[6]; 480 h, PRE, use rate 8 gai/ha, 20 DAT, read-out: % activity", "result": 35, "unit": "%"},
      {"measurement": "inhibition at 8 g/ha", "setting": "[6]; COMBE PRE, use rate 8 gai/ha, read-out: % activity", "result": 60, "unit": "%"},
      {"measurement": "inhibition at 2 g/ha", "setting": "[6]; PRE, COMBE, use rate 2 gai/ha, read-out: % activity", "result": 0, "unit": "%"},
      {"measurement": "inhibition at 4 g/ha", "setting": "[6]; PRE, COMBE", "result": 25, "unit": "%"},
      {"measurement": "inhibition at 8 g/ha", "setting": "[6]; PRE, COMBE, use rate 8 gai/ha, read-out: % activity", "result": 75, "unit": "%"}
    ]}
  ]
}
